Values of other authors, collected in patent publication US10441617B2, “Breeding, production, processing and use of medical cannabis” (priority 2013, dated 2019).
Read-outs that look alike come from different tables or passages of the source.

Assays:
cannabinoid receptor CB1 = cannabinoid receptor CB1 (Homo sapiens, UniProt P21554)
5-HT1A receptor = biological target: T1, 5-HT1A receptor (Homo sapiens, UniProt P08908)
T1 sequence (P08908 1-422): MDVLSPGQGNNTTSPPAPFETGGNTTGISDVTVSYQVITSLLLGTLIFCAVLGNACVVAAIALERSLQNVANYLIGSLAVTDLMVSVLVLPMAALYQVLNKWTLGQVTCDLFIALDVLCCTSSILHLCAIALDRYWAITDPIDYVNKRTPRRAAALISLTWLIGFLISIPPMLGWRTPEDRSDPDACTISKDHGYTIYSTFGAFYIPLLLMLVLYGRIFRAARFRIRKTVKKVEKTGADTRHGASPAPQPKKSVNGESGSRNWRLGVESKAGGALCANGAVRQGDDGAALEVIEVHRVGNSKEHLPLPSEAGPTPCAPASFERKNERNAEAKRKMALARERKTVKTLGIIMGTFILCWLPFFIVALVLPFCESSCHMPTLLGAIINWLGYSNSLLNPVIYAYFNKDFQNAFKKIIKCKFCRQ

CB2 receptor = CB2 receptor (Homo sapiens, UniProt P34972)
[1] = tested on: aggressive human breast cancer cells; details: in vitro
[2] = tested on: Mu and Delta opioid receptor sites
[3] = CBD 1-10 mg/kg IP over 21 days with equivalent doses of delta-9-THC
GPR55 = GPR55 (Homo sapiens, UniProt Q9Y2T6)
Sequence of GPR55 (Q9Y2T6 whole entry, species assumed): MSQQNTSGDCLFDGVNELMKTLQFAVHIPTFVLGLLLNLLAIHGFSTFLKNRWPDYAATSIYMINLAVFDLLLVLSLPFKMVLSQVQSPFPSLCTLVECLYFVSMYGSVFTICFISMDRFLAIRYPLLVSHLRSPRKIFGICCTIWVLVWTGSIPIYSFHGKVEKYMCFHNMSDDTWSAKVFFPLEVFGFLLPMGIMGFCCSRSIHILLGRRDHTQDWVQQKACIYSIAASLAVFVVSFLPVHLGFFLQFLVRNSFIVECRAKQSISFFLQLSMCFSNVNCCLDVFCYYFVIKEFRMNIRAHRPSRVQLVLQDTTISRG

Sequence of cannabinoid receptor CB1 (P21554 whole entry): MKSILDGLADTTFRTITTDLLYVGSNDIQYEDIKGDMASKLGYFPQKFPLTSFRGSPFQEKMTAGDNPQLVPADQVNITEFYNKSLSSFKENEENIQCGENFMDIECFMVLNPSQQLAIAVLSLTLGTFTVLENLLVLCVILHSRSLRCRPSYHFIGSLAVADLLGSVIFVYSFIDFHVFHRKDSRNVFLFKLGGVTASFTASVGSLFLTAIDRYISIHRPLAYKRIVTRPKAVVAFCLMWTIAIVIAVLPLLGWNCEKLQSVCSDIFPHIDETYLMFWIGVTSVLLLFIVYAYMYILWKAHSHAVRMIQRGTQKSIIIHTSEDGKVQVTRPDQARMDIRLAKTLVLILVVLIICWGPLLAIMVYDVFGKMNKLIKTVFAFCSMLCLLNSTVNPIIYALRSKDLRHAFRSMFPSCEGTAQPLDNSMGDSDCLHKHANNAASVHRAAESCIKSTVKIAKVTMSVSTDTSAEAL
Sequence of CB2 receptor (P34972 whole entry): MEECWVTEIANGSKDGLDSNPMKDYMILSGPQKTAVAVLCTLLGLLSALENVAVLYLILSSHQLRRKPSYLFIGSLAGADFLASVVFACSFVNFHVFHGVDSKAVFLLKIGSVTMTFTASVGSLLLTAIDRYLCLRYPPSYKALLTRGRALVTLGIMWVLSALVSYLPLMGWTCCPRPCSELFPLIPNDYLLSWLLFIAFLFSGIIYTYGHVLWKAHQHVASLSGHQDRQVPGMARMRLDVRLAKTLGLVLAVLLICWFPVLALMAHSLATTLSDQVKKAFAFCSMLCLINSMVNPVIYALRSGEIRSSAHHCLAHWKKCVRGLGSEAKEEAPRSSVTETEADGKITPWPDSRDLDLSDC

Row | SMILES | Activity at CB1 receptor (cannabinoid receptor CB1) | Activity at 5-HT1A receptor (5-HT1A receptor) | Activity at CB2 receptor (CB2 receptor) | further results
1 | CCCc1cc(O)c2c(c1)OC(C)(C)[C@@H]1CCC(C)=C[C@@H]21 [THCV, Tetrahydrocannabivarin] | CB1 receptor antagonist |  |  | 
2 | CCCCCc1cc(O)c(C/C=C(\C)CCC=C(C)C)c(O)c1 [CBG, Cannabigerol] | low affinity CB1 receptor antagonist | moderate affinity 5-HT1A receptor antagonist | binds to the CB2 receptor | Activity at α2-adrenergic receptor (α2-adrenergic receptor): high affinity α2-adrenergic receptor agonist
3 | CCCCCc1cc(O)c2c(c1)OC(C)(C)[C@@H]1CCC(C)=CC21 (stereo partly drawn) [THC, delta-9-tetrahydrocannabinol] |  |  | partial agonist activity | 
4 | CCCCCc1cc(O)c2c(c1)OC(C)(C)c1ccc(C)cc1-2 [CBN, Cannabinol] | weak agonist |  | weak agonist | 
5 | C=C(C)[C@@H]1CCC(C)=C[C@H]1c1c(O)cc(CCCCC)cc1O [CBD, Cannabidiol] | no affinity | 5-HT1A receptor agonist | no affinity | Growth of aggressive human breast cancer cells [1]: reduces growth; Effect of CBD on the effects of delta-9-THC (ratio of CBD/delta-9-THC 1.8): enhanced the effects of delta-9-THC; Effect of CBD on the effects of delta-9-THC (ratio of CBD/delta-9-THC around 8.1): antagonistic effects; Activity at Mu and Delta opioid receptor sites [2]: allosteric modulator; Behavioral effects of delta-9-THC [3]: augmented the anxiogenic and locomotor suppressant effects and social interaction deficits; Blood and brain levels of delta-9-THC [3]: increased blood and brain levels; Activity at GPR55 (GPR55): antagonist
